What was measured:
Type in all cases: biochemical
[1] = target: T1, HsPINK1 (Homo sapiens, UniProt Q9BXM7, M318A); experiment: ubiquitin phosphorylation by heavy membranes, pSer65 Western blot; details: 15 uM ubiquitin, pH 7.4, 30 C
T1 construct: gene PINK1; HsPINK1 expressed transiently (pcDNA5d3) in HeLa PINK1-/- cells; heavy membrane fraction after oligomycin/antimycin treatment

[2] = target: T2, PhPINK1 (residues 115 to 575) (Pediculus humanus, UniProt E0W1I1); experiment: ubiquitin phosphorylation, Phos-tag SDS-PAGE; details: 1 mM ATP, 15 uM ubiquitin, 10 mM MgCl2, pH 7.4, 22 C
T2 construct: gene Pink1; residues 115-575, kinase domain with N- and C-terminal extensions; E. coli Rosetta2; N-terminal GST tag with 3C protease site in vector; autophosphorylated monomer for thermal shift, lambda-phosphatase-treated homo-dodecamer (six dimers) for cryo-EM
T2 sequence (E0W1I1 115-575): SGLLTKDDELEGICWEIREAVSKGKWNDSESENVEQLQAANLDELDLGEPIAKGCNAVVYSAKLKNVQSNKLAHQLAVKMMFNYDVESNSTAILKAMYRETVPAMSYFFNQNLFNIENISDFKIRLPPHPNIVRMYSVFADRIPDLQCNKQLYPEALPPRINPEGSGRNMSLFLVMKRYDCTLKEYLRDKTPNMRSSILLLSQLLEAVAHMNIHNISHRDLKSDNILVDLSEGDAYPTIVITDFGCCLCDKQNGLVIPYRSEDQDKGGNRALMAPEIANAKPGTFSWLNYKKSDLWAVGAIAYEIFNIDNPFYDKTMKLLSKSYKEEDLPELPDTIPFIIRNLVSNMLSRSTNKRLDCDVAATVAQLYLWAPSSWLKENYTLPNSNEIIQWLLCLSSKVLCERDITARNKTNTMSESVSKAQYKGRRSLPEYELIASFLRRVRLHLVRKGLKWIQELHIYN

[3] = target: T3, HsPINK1 (Homo sapiens, UniProt Q9BXM7, M318G); experiment: ubiquitin phosphorylation by heavy membranes, pSer65 Western blot; details: 1 mM KTP, 15 uM ubiquitin, pH 7.4, 30 C
T3 construct: gene PINK1; HsPINK1 expressed transiently (pcDNA5d3) in HeLa PINK1-/- cells; heavy membrane fraction after oligomycin/antimycin treatment
T3 sequence (Q9BXM7 78-581 M318G): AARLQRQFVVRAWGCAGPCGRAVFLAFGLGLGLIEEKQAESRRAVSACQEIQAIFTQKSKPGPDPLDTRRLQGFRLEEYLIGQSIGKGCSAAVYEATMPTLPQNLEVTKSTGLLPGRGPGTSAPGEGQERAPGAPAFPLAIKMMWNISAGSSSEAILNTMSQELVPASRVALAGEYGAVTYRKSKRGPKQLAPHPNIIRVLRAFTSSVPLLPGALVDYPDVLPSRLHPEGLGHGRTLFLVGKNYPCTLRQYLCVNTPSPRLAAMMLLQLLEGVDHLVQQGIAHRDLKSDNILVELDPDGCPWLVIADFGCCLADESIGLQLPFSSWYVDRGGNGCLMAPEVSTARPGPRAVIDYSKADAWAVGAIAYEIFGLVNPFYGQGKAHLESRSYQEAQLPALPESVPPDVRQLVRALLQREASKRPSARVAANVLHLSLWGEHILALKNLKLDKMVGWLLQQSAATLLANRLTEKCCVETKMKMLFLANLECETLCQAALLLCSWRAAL

T1 sequence (Q9BXM7 78-581 M318A): as the sequence (Q9BXM7 78-581 M318G) above, with G241A counted along it

Nc1ncnc2c1ncn2[C@@H]1O[C@H](COP(=O)(O)OP(=O)(O)OP(=O)(O)O)[C@@H](O)[C@H]1O [ATP]
ubiquitin phosphorylation by heavy membranes, pSer65 Western blot ([1]; 1 mM ATP): HsPINK1 M318A, is active with both ATP and KTP
ubiquitin phosphorylation, Phos-tag SDS-PAGE [2]: Time course ubiquitin phosphorylation assay using WT PhPINK1 in the presence of ATP

O=P(O)(O)OP(=O)(O)OP(=O)(O)OC[C@H]1O[C@@H](n2cnc3c(NCc4ccco4)ncnc32)[C@H](O)[C@@H]1O [KTP]
ubiquitin phosphorylation by heavy membranes, pSer65 Western blot ([1]; 1 mM KTP): both mutants were able to use KTP instead of ATP to generate phospho-ubiquitin
ubiquitin phosphorylation by heavy membranes, pSer65 Western blot [3]: both mutants were able to use KTP instead of ATP to generate phospho-ubiquitin

Reference: publication PMC10798554, “Interaction of PINK1 with nucleotides and kinetin” (Science Advances, 2024)
